Experiments:
[1] = molecular target: T1, Aurora B (Homo sapiens, UniProt Q96GD4); assay: Aurora B enzyme inhibition (time-resolved fluorescence, histone H3 peptide); assay type: biochemical; conditions: 1 mM ATP
T1 construct: Active Aurora B enzyme (recombinant residues 1-344)
Procedure, shortened: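 Recombinant Aurora B (residues 1-344) with GST-INCENP phosphorylated biotinylated histone H3 (1-21) peptide at 1 mM ATP in HEPES pH 7.4 with MgCl2, orthovanadate and Triton X-100 for 1 h. After EDTA stop, the phosphopeptide was detected by TR-FRET (Eu-cryptate anti-phospho-H3 / SA-APC, 665/615 nm ratio). IC50 from an exponential fit.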

[2] = molecular target: KDR (Homo sapiens, UniProt P35968); assay: KDR HTRF in vitro kinase assay; assay type: biochemical; design: purified enzyme (His6-KDR 789-1354, MW 63 kD); His6 (N); conditions: 1 mM ATP; read-out: KDR enzyme inhibition data (Ki)
Chain of KDR (P35968 789-1354): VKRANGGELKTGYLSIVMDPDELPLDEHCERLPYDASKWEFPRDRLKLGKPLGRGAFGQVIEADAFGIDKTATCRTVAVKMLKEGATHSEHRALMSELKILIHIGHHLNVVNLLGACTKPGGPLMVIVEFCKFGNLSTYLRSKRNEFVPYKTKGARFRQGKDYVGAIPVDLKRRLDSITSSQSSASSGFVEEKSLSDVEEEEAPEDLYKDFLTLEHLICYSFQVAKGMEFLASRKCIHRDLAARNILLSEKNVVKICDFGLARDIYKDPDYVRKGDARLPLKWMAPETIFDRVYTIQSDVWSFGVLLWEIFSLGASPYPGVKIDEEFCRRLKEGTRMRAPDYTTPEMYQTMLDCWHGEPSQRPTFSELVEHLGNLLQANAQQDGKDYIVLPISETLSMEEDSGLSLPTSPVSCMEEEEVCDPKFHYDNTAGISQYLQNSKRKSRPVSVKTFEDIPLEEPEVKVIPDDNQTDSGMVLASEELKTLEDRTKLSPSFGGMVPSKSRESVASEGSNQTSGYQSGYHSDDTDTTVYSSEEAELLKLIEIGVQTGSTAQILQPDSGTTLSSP
Procedure, shortened: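 His6-KDR 789-1354 (7 ng/well) with 0.5 μM biotinylated peptide substrate and 1 mM ATP in HEPES pH 7.1, MgCl2/MnCl2, 60 min at room temperature. EDTA-quenched, detected by streptavidin-XL-665 plus Eu-kryptate anti-phosphotyrosine HTRF after 3 h; IC50 from 620/665 nm ratio.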

T1 sequence (Q96GD4 whole entry, the tested form may be a part): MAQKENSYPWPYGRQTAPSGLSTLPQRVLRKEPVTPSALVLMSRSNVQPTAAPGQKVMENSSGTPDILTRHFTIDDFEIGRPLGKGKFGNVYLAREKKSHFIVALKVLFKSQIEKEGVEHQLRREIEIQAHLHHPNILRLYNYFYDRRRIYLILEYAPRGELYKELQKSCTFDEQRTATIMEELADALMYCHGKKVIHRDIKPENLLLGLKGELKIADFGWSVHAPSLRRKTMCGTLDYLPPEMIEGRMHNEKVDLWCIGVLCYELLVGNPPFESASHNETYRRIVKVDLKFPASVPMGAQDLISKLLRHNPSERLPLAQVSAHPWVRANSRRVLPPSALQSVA
T1 sequence (Q9NQS7 826-918 partner limits assumed): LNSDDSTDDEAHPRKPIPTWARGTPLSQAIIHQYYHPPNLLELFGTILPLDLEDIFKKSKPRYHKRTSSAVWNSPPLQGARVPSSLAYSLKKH

Structure (SMILES) | Ki [1] [nM] | Ki [2] [nM]
NC(=O)[C@@H]1[C@H](Nc2nc(Nc3cnn(CC4CCO4)c3)ncc2Cl)[C@H]2C=C[C@@H]1C2 (stereo partly drawn) [Example 129, (1S,2S,3R,4R)-3-[(5-chloro-2-{[1-(oxetan-2-ylmethyl)-1H-pyrazol-4-yl]amino}pyrimidin-4-yl)amino]bicyclo[2.2.1]hept-5-ene-2-carboxamide] | < 100 | < 100
NC(=O)[C@@H]1[C@H](Nc2nc(Nc3cnn(C[C@@H](O)CO)c3)ncc2Cl)[C@H]2C=C[C@@H]1C2 [Example 130, (1S,2S,3R,4R)-3-{[5-chloro-2-({1-[(2R)-2,3-dihydroxypropyl]-1H-pyrazol-4-yl}amino)pyrimidin-4-yl]amino}bicyclo[2.2.1]hept-5-ene-2-carboxamide] | < 100 | < 100
NC(=O)[C@@H]1[C@H](Nc2nc(Nc3cnn(C[C@H](O)CO)c3)ncc2Br)[C@H]2C=C[C@@H]1C2 [Example 131, (1S,2S,3R,4R)-3-{[5-bromo-2-({1-[(2S)-2,3-dihydroxypropyl]-1H-pyrazol-4-yl}amino)pyrimidin-4-yl]amino}bicyclo[2.2.1]hept-5-ene-2-carboxamide] | < 100 | < 100
Cn1cc(Nc2ncc(Br)c(Nc3ccccc3C3(O)CCC3)n2)cn1 [Example 132, 1-[2-({5-bromo-2-[(1-methyl-1H-pyrazol-4-yl)amino]pyrimidin-4-yl}amino)phenyl]cyclobutanol] | < 100 | < 100
Cc1nn(C)cc1Nc1ncc(Cl)c(N[C@H]2[C@@H](C(N)=O)[C@@H]3C=C[C@H]2C3)n1 [Example 134, (1S,2S,3R,4R)-3-({5-chloro-2-[(1,3-dimethyl-1H-pyrazol-4-yl)amino]pyrimidin-4-yl}amino)bicyclo[2.2.1]hept-5-ene-2-carboxamide] | < 100 | < 100
Cc1nn(C)cc1Nc1ncc(Br)c(N[C@H]2[C@@H](C(N)=O)[C@@H]3C=C[C@H]2C3)n1 [Example 135, (1S,2S,3R,4R)-3-({5-bromo-2-[(1,3-dimethyl-1H-pyrazol-4-yl)amino]pyrimidin-4-yl}amino)bicyclo[2.2.1]hept-5-ene-2-carboxamide] | < 100 | < 100
Cn1cc(Nc2ncc([N+](=O)[O-])c(N[C@H]3[C@@H](C(N)=O)[C@@H]4C=C[C@H]3C4)n2)cn1 [Example 139, (1S,2S,3R,4R)-3-({2-[(1-methyl-1H-pyrazol-4-yl)amino]-5-nitropyrimidin-4-yl}amino)bicyclo[2.2.1]hept-5-ene-2-carboxamide] | < 100 | < 100
CCn1cc(Nc2ncc([N+](=O)[O-])c(N[C@H]3[C@@H](C(N)=O)[C@@H]4C=C[C@H]3C4)n2)cn1 [Example 140, (1S,2S,3R,4R)-3-({2-[(1-ethyl-1H-pyrazol-4-yl)amino]-5-nitropyrimidin-4-yl}amino)bicyclo[2.2.1]hept-5-ene-2-carboxamide] | < 100 | < 100
NC(=O)[C@@H]1[C@H](Nc2nc(Nc3cnn(CCc4ccccc4)c3)ncc2Cl)[C@H]2C=C[C@@H]1C2 [Example 143, (1S,2S,3R,4R)-3-[(5-chloro-2-{[1-(2-phenylethyl)-1H-pyrazol-4-yl]amino}pyrimidin-4-yl)amino]bicyclo[2.2.1]hept-5-ene-2-carboxamide] | < 100 | < 100
NC(=O)[C@@H]1[C@H](Nc2nc(Nc3cnn(Cc4ccccc4)c3)ncc2Cl)[C@H]2C=C[C@@H]1C2 [Example 144, (1S,2S,3R,4R)-3-({2-[(1-benzyl-1H-pyrazol-4-yl)amino]-5-chloropyrimidin-4-yl}amino)bicyclo[2.2.1]hept-5-ene-2-carboxamide] | < 100 | < 100
NC(=O)[C@@H]1[C@H](Nc2nc(Nc3cnn(CCc4ccccc4)c3)ncc2Br)[C@H]2C=C[C@@H]1C2 [Example 148, (1S,2S,3R,4R)-3-[(5-bromo-2-{[1-(2-phenylethyl)-1H-pyrazol-4-yl]amino}pyrimidin-4-yl)amino]bicyclo[2.2.1]hept-5-ene-2-carboxamide] | < 100 | < 100
NC(=O)[C@@H]1[C@H](Nc2nc(Nc3cnn(Cc4ccccc4)c3)ncc2Br)[C@H]2C=C[C@@H]1C2 [Example 149, (1S,2S,3R,4R)-3-({2-[(1-benzyl-1H-pyrazol-4-yl)amino]-5-bromopyrimidin-4-yl}amino)bicyclo[2.2.1]hept-5-ene-2-carboxamide] | < 100 | < 100
Cn1cc(Nc2ncc(C(F)(F)F)c(Nc3ccsc3C(N)=O)n2)cn1 [Example 150, 3-({2-[(1-methyl-1H-pyrazol-4-yl)amino]-5-(trifluoromethyl)pyrimidin-4-yl}amino)thiophene-2-carboxamide] | < 100 | < 100
COc1cccc(CCn2cc(Nc3ncc(Cl)c(N[C@H]4[C@@H](C(N)=O)[C@@H]5C=C[C@H]4C5)n3)cn2)c1 [Example 154, (1S,2S,3R,4R)-3-{[5-chloro-2-({1-[2-(3-methoxyphenyl)ethyl]-1H-pyrazol-4-yl}amino)pyrimidin-4-yl]amino}bicyclo[2.2.1]hept-5-ene-2-carboxamide] | < 100 | < 100
COc1cccc(Cn2cc(Nc3ncc(Cl)c(N[C@H]4[C@@H](C(N)=O)[C@@H]5C=C[C@H]4C5)n3)cn2)c1 [Example 155, (1S,2S,3R,4R)-3-[(5-chloro-2-{[1-(3-methoxybenzyl)-1H-pyrazol-4-yl]amino}pyrimidin-4-yl)amino]bicyclo[2.2.1]hept-5-ene-2-carboxamide] | < 100 | < 100
NC(=O)[C@@H]1[C@H](Nc2nc(Nc3cnn(Cc4cccc(Cl)c4)c3)ncc2Cl)[C@H]2C=C[C@@H]1C2 [Example 157, (1S,2S,3R,4R)-3-[(5-chloro-2-{[1-(3-chlorobenzyl)-1H-pyrazol-4-yl]amino}pyrimidin-4-yl)amino]bicyclo[2.2.1]hept-5-ene-2-carboxamide] | < 100 | < 100
NC(=O)[C@@H]1[C@H](Nc2nc(Nc3cnn(CCc4cccc(Cl)c4)c3)ncc2Cl)[C@H]2C=C[C@@H]1C2 [Example 158, (1S,2S,3R,4R)-3-{[5-chloro-2-({1-[2-(3-chlorophenyl)ethyl]-1H-pyrazol-4-yl}amino)pyrimidin-4-yl]amino}bicyclo[2.2.1]hept-5-ene-2-carboxamide] | < 100 | < 100

Other lines, results leading:

Ki [1] [nM] | Ki [2] [nM] | Structure (SMILES)
< 100 | < 100 | Cn1cc(Nc2ncc(C(F)(F)F)c(Nc3ccccc3C3(O)CCC3)n2)cn1 [Example 115, 1-[2-({2-[(1-methyl-1H-pyrazol-4-yl)amino]-5-(trifluoromethyl)pyrimidin-4-yl}amino)phenyl]cyclobutanol]
< 100 | < 100 | NC(=O)[C@@H]1[C@H](Nc2nc(Nc3cnn([C@@H]4CCOC4)c3)ncc2Br)[C@H]2C=C[C@@H]1C2 [Example 116, (1S,2S,3R,4R)-3-{[5-bromo-2-({1-[(3R)-tetrahydrofuran-3-yl]-1H-pyrazol-4-yl}amino)pyrimidin-4-yl]amino}bicyclo[2.2.1]hept-5-ene-2-carboxamide]
< 100 | < 100 | NC(=O)[C@@H]1[C@H](Nc2nc(Nc3cnn([C@H]4CCOC4)c3)ncc2Br)[C@H]2C=C[C@@H]1C2 [Example 117, (1S,2S,3R,4R)-3-{[5-bromo-2-({1-[(3S)-tetrahydrofuran-3-yl]-1H-pyrazol-4-yl}amino)pyrimidin-4-yl]amino}bicyclo[2.2.1]hept-5-ene-2-carboxamide]
< 100 | < 100 | NC(=O)[C@@H]1[C@H](Nc2nc(Nc3cnn(C4CCC4)c3)ncc2Cl)[C@H]2C=C[C@@H]1C2 [Example 118, (1S,2S,3R,4R)-3-({5-chloro-2-[(1-cyclobutyl-1H-pyrazol-4-yl)amino]pyrimidin-4-yl}amino)bicyclo[2.2.1]hept-5-ene-2-carboxamide]
< 100 | < 100 | CS(=O)(=O)CCn1cc(Nc2ncc(Cl)c(N[C@H]3[C@@H](C(N)=O)[C@@H]4C=C[C@H]3C4)n2)cn1 [Example 119, (1S,2S,3R,4R)-3-{[5-chloro-2-({1-[2-(methylsulfonyl)ethyl]-1H-pyrazol-4-yl}amino)pyrimidin-4-yl]amino}bicyclo[2.2.1]hept-5-ene-2-carboxamide]
< 100 | < 100 | CS(=O)(=O)CCn1cc(Nc2ncc(Br)c(N[C@H]3[C@@H](C(N)=O)[C@@H]4C=C[C@H]3C4)n2)cn1 [Example 122, (1S,2S,3R,4R)-3-{[5-bromo-2-({1-[2-(methylsulfonyl)ethyl]-1H-pyrazol-4-yl}amino)pyrimidin-4-yl]amino}bicyclo[2.2.1]hept-5-ene-2-carboxamide]
< 100 | < 100 | NC(=O)[C@@H]1[C@H](Nc2nc(Nc3cnn(C4CCC4)c3)ncc2Br)[C@H]2C=C[C@@H]1C2 [Example 123, (1S,2S,3R,4R)-3-({5-bromo-2-[(1-cyclobutyl-1H-pyrazol-4-yl)amino]pyrimidin-4-yl}amino)bicyclo[2.2.1]hept-5-ene-2-carboxamide]
< 100 | < 100 | NC(=O)[C@@H]1[C@H](Nc2nc(Nc3cnn(C[C@H](O)CO)c3)ncc2Cl)[C@H]2C=C[C@@H]1C2 [Example 124, (1S,2S,3R,4R)-3-{[5-chloro-2-({1-[(2S)-2,3-dihydroxypropyl]-1H-pyrazol-4-yl}amino)pyrimidin-4-yl]amino}bicyclo[2.2.1]hept-5-ene-2-carboxamide]

From patent US8426408B2, “Pyrimidine inhibitors of kinases” (AbbVie Inc., priority 2009, dated 2013)
